We go through two compounds from patent publication US9737525B2, “Small molecule activators of NRF2 pathway” (The General Hospital Corporation, priority 2013, dated 2017).

The term IC50 denotes the concentration that inhibits the measured activity by half.

Assay [1] concerns the target human recombinant SIRT2 deacetylase (Homo sapiens (Human), UniProt Q8IXJ6). Description: Sirtuin biochemical deacetylation assay, SIRT2. The note with it: for SIRT2 inhibition: dose-response. Here is the method:
Modulation of sirtuin activity by compounds was assessed using the Flour de Lys fluorescent biochemical assay in a 96-well format as described (Outeiro et al., 2007). The deacetylation reaction was performed at 37° C. for an hour in the presence of human recombinant enzymes: SIRT1 (BioMol-SE-239) 1 unit/per reaction, SIRT2 (BioMol-SE-251) 5 units/per reaction, or SIRT3 (BioMol-SE-270) 5 units/per reaction, compound of interest, standard buffer, 50 μM substrate, and 500 μM NAD^+ according to the manufacturer's protocol. […]

A further assay concerns NQO1. As to the kind of experiment: Quantitative NQO1 inducer bioassay in Hepa1c1c7 cells. The assay is classed as cell-based, murine. The settings on record: for Effect of GSH pre-incubation on NQO1 inducer potency: 1 mM GSH at 37° C. for 30 min before cell treatment; for CD value (Concentration which Doubles the specific activity of NQO1): Hepa1c1c7 cells; for CD value (Concentration which Doubles the specific activity of NQO1) / EC (2-fold NQO1 activity): 48 hr exposure; for EC (2-fold NQO1 activity): Mus musculus, Hepa-1c1c7, Table 3, Concentration which Doubles the specific activity of NQO1, read-out: NQD1 CD.

Assay [2] has as its system Nrf2-responsive proteins NQO1 and GCLM. As to the kind of experiment: NRF2 responses in wild type and mutant SOD1 (G93A) primary astroglia. The assay is classed as cell-based. The note with it: wild type and mutant SOD1 (G93A) mouse primary astroglia. The source says:
Primary glia was derived from wild type and mutant SOD1 (G93A) mice and treated with MIND4 and MIND4-17 at indicated doses. The expression NRF2 responsive NQO1 and GCLM proteins were detected by immunochemistry. […] Importantly, compounds had no effects on human mutant SOD1 transgene, expressing in mice from human promoter.

Assay [3] relates to LUHMES cells overexpressing aSyn. Description: Viability assay (adenylate kinase release) in differentiated LUHMES cells overexpressing aSyn. The assay is classed as cell-based. The note with it: 0.4 μM and 1 μM, 96 hr. Here is the method:
LUHMES cells were maintained as proliferating cultures and differentiated into post-mitotic-like neurons on Nunclon plates and flasks, pre-coated with 50 μg/mL poly-L-ornithine (Sigma) and 1 μg/mL fibronectin (Sigma). Specifically, 8×10^6 proliferating LUHMES cells were seeded into a T175 flask containing proliferation medium, consisting of advanced DEMEM/F12 (Invitrogen), 2 mM L-glutamine (Sigma-Aldrich), 1×N2 supplement (Invitrogen) and 40 ng/mL recombinant human bFGF (R&D Systems). After 24 hr, proliferation medium was replaced with differentiation medium, composed of advanced DMEM/F12 (Invitrogen), 2 mM L-glutamine (Sigma-Aldrich), 1×N2 supplement (Invitrogen), 1 mM dibutyryl 3′, 5′-cyclic adenosine monophosphate (Sigma-Aldrich), 2.25 μM tetracycline and 2 ng/mL recombinant human GDNF (R&D Systems). 48 hr later, cells were trypsinized and seeded into 24-well plates, containing 1 mL of differentiation medium and 250,000 cells/well.
For lenti-virus based expression the following transfer plasmids have been constructed. […] The measurement of transgene expression has been determined by qRT PCR using SYBR GREEN, after infection of 293-Hek-cells, and specific primers to the woodchuck hepatitis virus posttranscriptional regulatory element (WPRE) as described previously (PMID: 12718761). […]

“Also recorded” adds a separate entry of the source.

Chain of human recombinant SIRT2 deacetylase (Q8IXJ6 whole entry): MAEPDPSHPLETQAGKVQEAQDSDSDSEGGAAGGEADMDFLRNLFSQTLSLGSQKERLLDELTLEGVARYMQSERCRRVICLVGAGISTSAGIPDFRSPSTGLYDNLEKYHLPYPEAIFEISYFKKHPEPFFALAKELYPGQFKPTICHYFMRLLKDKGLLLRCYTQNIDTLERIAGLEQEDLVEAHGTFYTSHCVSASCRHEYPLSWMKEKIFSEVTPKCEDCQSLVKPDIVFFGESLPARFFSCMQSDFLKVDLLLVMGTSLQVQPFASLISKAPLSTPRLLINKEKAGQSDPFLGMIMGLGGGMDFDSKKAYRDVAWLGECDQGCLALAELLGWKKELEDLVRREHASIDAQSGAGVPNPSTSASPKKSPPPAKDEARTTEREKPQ

For `O=[N+]([O-])c1ccc(Sc2nnc(COc3ccccc3)n2-c2ccccc2)c2ncccc12` [MIND4, 5-nitro-8-{[5-(phenoxymethyl)-4-phenyl-4H-1,2,4-triazol-3-yl]thio}quinoline], the IC50 in assay [1] (Table 1) turned out to be 1.7 µM. Moreover, the IC50 in assay [1] (Table 3) was found to be 3.5 µM. For the same compound, in assay [1], the SIRT2 inhibition entry was “dose-dependent and selective inhibition of human recombinant SIRT2 deacetylase”. Moreover, in the assay on NQO1, the “Effect of GSH pre-incubation on NQO1 inducer potency” value is “much less pronounced effect”, the “CD value (Concentration which Doubles the specific activity of NQO1)” value turned out to be 1.3 µM and the EC (2-fold NQO1 activity) turned out to be 1.3 µM. Besides, the “Induction of Nrf2-responsive proteins NQO1 and GCLM” value in assay [2] is on record as “dose-dependent induction”. In assay [3], the “Protection against αSyn toxicity” value is reported as “only mild protection”.
`O=[N+]([O-])c1ccc(Sc2nnc(COc3ccccc3)n2-c2ccccc2)nc1` [MIND4-17]: the IC50 in assay [1] (Table 3) was over 50 µM. In addition, in assay [1], the SIRT2 inhibition entry is given as “no inhibitory activity; also recorded: no detectable SIRT2 inhibition activity”. In addition, in the assay on NQO1, the “Effect of GSH pre-incubation on NQO1 inducer potency” value is recorded as “drastically reduced the potency”, the “CD value (Concentration which Doubles the specific activity of NQO1)” value worked out at 0.15 µM and the EC (2-fold NQO1 activity) was 0.15 µM. In assay [2], the “Induction of Nrf2-responsive proteins NQO1 and GCLM” value was “dose-dependent induction”. The “Protection against αSyn toxicity” value in assay [3] is “significant protective effects”.
